One series deals with T1, Tau^2N4R (Homo sapiens, UniProt P10636).
T1 construct: and full‐length Tau (Tau^2N4R); made in house; host or cells: E. coli BL21
Kind of series: ThT fluorescence end-point, heparin-induced aggregation of Tau^2N4R. It is filed as biochemical. The conditions noted are these: ThT end-point 216 h (9 days); Tau^2N4R, 20 µM peptide, 10 µM heparin, pH 7.4. On the procedure:
(§1) Fluorescence was measured (λex = 442 nm, λem = 483 nm), and data were normalized. […] The addition of inhibitor to the growth phase was controlled by adding an equivalent volume of buffer alone.
FIGURE 3 Lead peptide RI‐AG03 dose‐response and target specificity. […] (C) Concentration‐dependent inhibition of by Tau^Δ1‐250 by RI‐AG03. […] (E) Concentration‐dependent inhibition of by Tau^2N4R by RI‐AG03. […] (F) log10 scatter graph of Tau^2N4R inhibition by RI‐AG03 employing a curve fitting algorithm to calculate the IC50 at 5 µM. Experiments were conducted in triplicate and error bars were reported as standard deviation. One factor repeated measures ANOVA + Tukey post hoc statistical analysis: p > 0.05, *p ≤ 0.05, **p ≤ 0.01, ***p ≤ 0.001.

Series [1] relates to Tau repeat domain (RD) with the P301S mutation fused to mCer and mClo, HEK293 biosensor cells. The series is described as follows: Tau fibril seeding in FRET Tau biosensor cells. In kind it is cell-based, human. The conditions noted are these: biosensor cells, fibrils preincubated with 0–500 µM peptide; Figure 5C. On the procedure: Tau biosensor cells culture: RD P301S Tau biosensor cells have been previously described,[45] and in this case v2L cells were used. Cells were cultured in 10 cm dishes containing Dulbecco's Modified Eagle's Medium (DMEM) (Gibco) enriched with 10% FBS (HyClone), 1% penicillin/streptomycin (Gibco), and 1% GlutaMAX (Gibco) at 37°C with 5% CO2 in a humidified incubator.
5 µM of tau fibrils (monomer equivalent) were incubated in PBS with peptide RI‐AG03 or scramble (0–500 µM) at 300 rpm agitation at 4°C for 16 h. The reaction was stopped by flash freezing in liquid nitrogen and stored at –20°C. Tau biosensor cells were plated at a density of 30,000 cells in 120 µL of media per well in a 96‐well plate. After 18 h, using Lipofectamine 2000 cells were transduced with 10 nM of treated fibrils that had been briefly sonicated for 30 s at 65 Amp (QSonica). Lipofectamine complexes were formed in 30 µL consisting of 14.17 µL Opti‐MEM (Gibco), 15 µL of treated fibrils diluted in PBS, and 0.83 µL lipofectamine 2000 (Invitrogen), bringing the total volume to 150 µL. […] Aggregates in Tau biosensors (10,000 minimum) were quantified by FRET flow cytometry in a LSRFortessa SORP (BD Biosciences). To detect the cerulean signal, cells were excited with a 405 nm laser, and fluorescence was captured at […]. For clover signal, cells were excited with a 488 nm laser and fluorescence was detected at 525/50 nm. Flow cytometry data were analyzed using a gating strategy previously described.[45], [47] The percentage of cells with positive FRET signal were quantified. Each condition was analyzed in quadruplicate. […]
To test RI‐AG03 efficacy in mammalian cells, we utilized a fluorescence resonance energy transfer (FRET) biosensor HEK293 cell line that stably expresses the Tau repeat domain (RD) with the P301S mutation fused to mCer and mClo. These cells[45] or prior generations[71] have been used extensively to quantify Tau seeding activity and measure intracellular aggregation.[71] […] Seeded aggregation was quantified by the percentage of FRET positivity.

The target in another series is T2, Tau^Δ1‐250 (Homo sapiens, UniProt P10636).
T2 construct: Tau^Δ1‐250 (an aggregate prone truncated version of full‐length Tau); made in house; host or cells: E. coli BL21(DE3)
The series is described as follows: ThT fluorescence, heparin-induced aggregation of Tau^Δ1‐250. In kind it is biochemical. The conditions noted are these: 5 µM heparin, pH 7.4, triplicate; for effect on Tau^Δ1‐250 aggregation (in words): ThT end-point 24 h, 20 µM Tau^Δ1‐250, 20 µM peptide. On the procedure: as §1
(§2) Experiments were conducted in triplicate and error bars were reported as standard deviation. Statistical analysis: p > 0.05, *p ≤ 0.05, **p ≤ 0.01, ***p ≤ 0.001.

Series [2] is described as follows: ThT fluorescence, self-assembly of peptide inhibitors without Tau. The conditions noted are these: ThT end-point 24 h, 37°C; 20 µM peptide without Tau, 5 µM heparin, 30 mM Tris, 1 mM DTT, 15 µM ThT, pH 7.4; triplicate. In kind it is physicochemical. As to the method: as §1, §2

Molecules are shown by their SMILES. Where a SMILES comes first, the peptide text is derived from it.

T2 sequence (P10636 568-758, stated change not applied): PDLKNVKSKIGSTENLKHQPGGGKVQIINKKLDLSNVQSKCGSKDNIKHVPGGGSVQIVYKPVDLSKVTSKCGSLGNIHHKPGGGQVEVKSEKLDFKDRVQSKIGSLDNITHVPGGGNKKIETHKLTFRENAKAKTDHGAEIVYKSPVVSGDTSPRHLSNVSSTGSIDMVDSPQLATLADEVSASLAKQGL
T1 sequence (P10636 1-441 isoform P10636-8): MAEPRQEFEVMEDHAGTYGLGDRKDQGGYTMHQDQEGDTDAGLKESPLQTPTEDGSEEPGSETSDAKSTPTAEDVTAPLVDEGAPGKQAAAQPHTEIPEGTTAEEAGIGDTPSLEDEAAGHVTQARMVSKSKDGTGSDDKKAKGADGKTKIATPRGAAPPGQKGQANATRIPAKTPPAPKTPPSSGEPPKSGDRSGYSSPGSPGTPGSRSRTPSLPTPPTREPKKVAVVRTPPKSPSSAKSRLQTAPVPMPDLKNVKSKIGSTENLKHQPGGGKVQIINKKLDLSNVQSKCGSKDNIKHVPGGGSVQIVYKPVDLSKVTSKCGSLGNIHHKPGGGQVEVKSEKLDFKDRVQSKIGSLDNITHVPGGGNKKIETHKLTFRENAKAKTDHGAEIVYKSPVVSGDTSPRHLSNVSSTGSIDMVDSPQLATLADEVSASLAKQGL

As for `CC[C@H](C)[C@H](NC(=O)[C@H](CCCCN)NC(=O)[C@@H]1CCCN1C(=O)[C@H](CCC(N)=O)NC(=O)CNC(=O)[C@H](CCCNC(=N)N)NC(C)=O)C(=O)N[C@@H](CCCCNC(C)=O)C(=O)N[C@@H](Cc1ccc(O)cc1)C(=O)N[C@H](C(=O)NCC(=O)N[C@@H](CCCNC(=N)N)C(=O)N[C@@H](CCCNC(=N)N)C(=O)N[C@@H](CCCNC(=N)N)C(=O)N[C@@H](CCCNC(=N)N)C(=O)N[C@@H](CCCNC(=N)N)C(=O)N[C@@H](CCCNC(=N)N)C(=O)N[C@@H](CCCNC(=N)N)C(=O)N[C@@H](CCCNC(=N)N)C(N)=O)C(C)C` [Scramble AG03, reference compound] (Ac-RGQPKIK(Ac)YVGRRRRRRRR-NH2), at Tau^2N4R, the “effect on Tau^2N4R aggregation (in words)” value is “did not suppress aggregation”. In addition, the “concentrations with peptide‐induced toxicity (decrease in FRET positivity)” value in series [1] is reported as “above 100 µM”. For the same molecule, the “effect on Tau^Δ1‐250 aggregation (in words)” value at Tau^Δ1‐250 is on record as “no effect on aggregation”. `CC[C@H](C)[C@H](NC(=O)[C@H](CCC(N)=O)NC(=O)[C@@H](NC(=O)CNC(=O)[C@H](CCCNC(=N)N)NC(C)=O)C(C)C)C(=O)N[C@@H](CCCCNC(C)=O)C(=O)N[C@@H](Cc1ccc(O)cc1)C(=O)N[C@@H](CCCCN)C(=O)N1CCC[C@H]1C(=O)NCC(=O)N[C@@H](CCCNC(=N)N)C(=O)N[C@@H](CCCNC(=N)N)C(=O)N[C@@H](CCCNC(=N)N)C(=O)N[C@@H](CCCNC(=N)N)C(=O)N[C@@H](CCCNC(=N)N)C(=O)N[C@@H](CCCNC(=N)N)C(=O)N[C@@H](CCCNC(=N)N)C(=O)N[C@@H](CCCNC(=N)N)C(N)=O` [AG03] (Ac-RGVQIK(Ac)YKPGRRRRRRRR-NH2): the “self-aggregation of peptide (in words)” value in series [2] was “minimal self‐aggregation”. The “inhibition of Tau^Δ1‐250 aggregation” value on Tau^Δ1‐250 (ThT end-point after 24 h, 37°C, 20 µM Tau^Δ1‐250, 20 µM peptide (equimolar), 30 mM Tris, 1 mM DTT, 15 µM ThT) is given as ~53%.

In the case of `CC[C@H](C)[C@H](NC(=O)[C@H](CCC(N)=O)NC(=O)[C@@H](NC(=O)CNC(=O)[C@H](CCCNC(=N)N)NC(=O)[C@H](CCCNC(=N)N)NC(=O)[C@H](CCCNC(=N)N)NC(=O)[C@H](CCCNC(=N)N)NC(C)=O)C(C)C)C(=O)N[C@H](C(=O)N[C@@H](Cc1ccc(O)cc1)C(=O)N[C@@H](CCCCN)C(=O)NCC(=O)N[C@@H](CCCNC(=N)N)C(N)=O)C(C)C` [AGR502] (Ac-RRRRGVQIVYKGR-NH2), the “effect on Tau^Δ1‐250 aggregation (in words)” value on Tau^Δ1‐250 is on record as “did not affect peptide inhibitory action”. Still for that read-out and setting: then `CC(=O)N[C@@H](CCCNC(=N)N)C(=O)N[C@@H](CCCNC(=N)N)C(=O)N[C@@H](CCCNC(=N)N)C(=O)N[C@@H](CCCNC(=N)N)C(=O)N[C@@H](CCCNC(=N)N)C(=O)N[C@@H](CCCNC(=N)N)C(=O)N[C@@H](CCCNC(=N)N)C(=O)N[C@@H](CCCNC(=N)N)C(=O)N[C@@H](CCCNC(=N)N)C(N)=O` [Poly‐arginine, reference compound], with “no effect on aggregation”.

`CC[C@H](C)[C@H](NC(=O)[C@H](CCC(N)=O)NC(=O)[C@@H](NC(=O)CNC(=O)[C@H](CCCNC(=N)N)NC(C)=O)C(C)C)C(=O)N[C@H](C(=O)N[C@@H](CC(N)=O)C(=O)N[C@@H](CCCCN)C(=O)NCC(=O)N[C@@H](CCCNC(=N)N)C(N)=O)[C@@H](C)CC` [AG01] (Ac-RGVQIINKGR-NH2): the “self-aggregation of peptide (in words)” value in series [2] was “self‐aggregated”. Take `CC(=O)NCCCC[C@H](NC(=O)[C@H](CCC(N)=O)NC(=O)[C@@H](NC(=O)CNC(=O)[C@H](CCCNC(=N)N)NC(C)=O)C(C)C)C(=O)N[C@H](C(=O)N[C@@H](Cc1ccc(O)cc1)C(=O)N[C@@H](CCCCN)C(=O)NCC(=O)N[C@@H](CCCNC(=N)N)C(N)=O)C(C)C` [AG02∆I] (Ac-RGVQK(Ac)VYKGR-NH2): the “self-aggregation of peptide (in words)” value in series [2] was “demonstrated self‐aggregation ability”. Consider `CC[C@H](C)[C@H](NC(=O)[C@H](CCC(N)=O)NC(=O)[C@@H](NC(=O)CNC(=O)[C@H](CCCNC(=N)N)NC(C)=O)C(C)C)C(=O)N[C@H](C(=O)N[C@@H](Cc1ccc(O)cc1)C(=O)N[C@@H](CCCCN)C(=O)NCC(=O)N[C@@H](CCCNC(=N)N)C(=O)N[C@@H](Cc1ccc(O)cc1)C(=O)NCC(=O)N[C@@H](CCCNC(=N)N)C(=O)N[C@@H](CCCCN)C(=O)N[C@@H](CCCCN)C(=O)N[C@@H](CCCNC(=N)N)C(=O)N[C@@H](CCCNC(=N)N)C(=O)N[C@@H](CCC(N)=O)C(=O)N[C@@H](CCCNC(=N)N)C(=O)N[C@@H](CCCNC(=N)N)C(=O)N[C@@H](CCCNC(=N)N)C(N)=O)C(C)C` [AG02TAT] (Ac-RGVQIVYKGRYGRKKRRQRRR-NH2), for which the “self-aggregation of peptide (in words)” value in series [2] is listed as “greater self‐association into β‐sheets than all other AG02‐derived peptides”. Further, the “effect on Tau^Δ1‐250 aggregation (in words)” value on Tau^Δ1‐250 is “no significant additional inhibitory benefits”. As to `CC[C@H](C)[C@H](NC(=O)[C@H](CCC(N)=O)NC(=O)[C@@H](NC(=O)CNC(=O)[C@H](CCCNC(=N)N)NC(C)=O)C(C)C)C(=O)N[C@@H](CCCCNC(C)=O)C(=O)N[C@@H](Cc1ccc(O)cc1)C(=O)N[C@@H](CCCCN)C(=O)NCC(=O)N[C@@H](CCCNC(=N)N)C(N)=O` [AG02∆V] (Ac-RGVQIK(Ac)YKGR-NH2), the “self-aggregation of peptide (in words)” value in series [2] is “demonstrated a tendency for self‐aggregation, though to a smaller extent”. Regarding `CC[C@H](C)[C@H](NC(=O)[C@H](CCC(N)=O)NC(=O)[C@@H](NC(=O)CNC(=O)[C@H](CCCNC(=N)N)NC(C)=O)C(C)C)C(=O)N[C@H](C(=O)N[C@@H](Cc1ccc(O)cc1)C(=O)N[C@@H](CCCCN)C(=O)N1CCC[C@H]1C(=O)NCC(=O)N[C@@H](CCCNC(=N)N)C(=O)N[C@@H](CCCNC(=N)N)C(=O)N[C@@H](CCCNC(=N)N)C(=O)N[C@@H](CCCNC(=N)N)C(N)=O)C(C)C` [AG02PR5] (Ac-RGVQIVYKPGRRRR-NH2), the “effect on Tau^Δ1‐250 aggregation (in words)” value on Tau^Δ1‐250 is on record as “no additional benefit”.

These data come from PMC11567856, “A novel peptide‐based tau aggregation inhibitor as a potential therapeutic for Alzheimer's disease and other tauopathies” (Alzheimer's & Dementia, 2024).
